{
  "source": "patent US5686255A",
  "about": "“Compositions and methods for diagnosing schizophrenia” (priority 1995, dated 1997)",
  "key": {"[1]": {"tested_on": "Chinese hamster ovary cells which express the cloned dopamine D4 receptor", "experiment": "Spontaneous G protein binding of [35S]GTPγS in membranes of CHO cells expressing the D4 receptor, after cycloleucine pretreatment", "type": "cell-based", "conditions": "cells treated with 0.1 mM and 1 mM cycloleucine prior to membrane preparation; versus untreated control membranes; FIG. 5A", "protocol": "The effect of cycloleucine, a known MAT inhibitor, on the binding of [^35 S]GTPγS was tested by treating Chinese hamster ovary cells expressing the D4 receptor with 0.1 mM and 1 mM cycloleucine prior to membrane preparation (FIG. 5A).\nChinese hamster ovary (CHO) cells stably expressing a cloned dopamine D4 receptor were grown as monolayers at 37° (95% O2 /5%CO2) in alpha minimum essential medium supplemented with 2.5% fetal calf serum, 2.5% horse serum, 100 units/ml penicillin, 100 μg/ml streptomycin, 0.25 μg/ml fungizone and 400 μg/ml G418.\nCells were washed twice with phosphate-buffered saline (137 mM NaCl, 2.6 mM KCl, 10 mM Na2 HPO4, 1.8 mM KH2 PO4), harvested with a rubber policeman, and pelleted at 4° at 200× g. The pellet was resuspended in 5 ml/dish of lysis buffer (5 mM Tris-HCL, pH 7.5, 5 mM EDTA, 5 mM EGTA, 0.1 mM phenylmethylsulfonyl fluoride) at 4° and was homogenized with a Dounce homogenizer. […]\n[^35 S]GTPγS binding was measured with a modification of the assay used by Hilf and Jakobs (Eur J Pharmacol 172: 155-163 (1989)). […] The filters were washed four times (with 4 ml of 50 mM Tris.cndot.HCl, pH 7.5, containing 5 mM MgCl2 and 100 mM NaCl) and then counted in scintillation cocktail. Nonspecific binding was determined in the presence of 10 μM GTPγS and subtracted from total bound radioactivity."}, "[2]": {"tested_on": "Chinese hamster ovary cells without the D4 receptor", "experiment": "Spontaneous [35S]GTPγS binding in CHO cells without the D4 receptor", "type": "cell-based", "conditions": "FIG. 5B", "excerpt": "FIGS. 5A and 5B illustrate graphic representations of the effect of cycloleucine on spontaneous G protein binding of [^35 S]GTPγS."}},
  "note": "Entries after “also recorded” stand apart in the source; their conditions may differ.",
  "data": [
    {"smiles": "NC1(C(=O)O)CCCC1", "note": "[cycloleucine]", "values": [
      {"measurement": "binding of [35S]GTPγS to the membranes (spontaneous G protein activation)", "setting": "[1]", "result": "inhibit spontaneous G protein binding of [^35 S]GTPγS; also recorded: progressively reduced by 0.1 mM and 1 mM cycloleucine pretreatment to levels significantly lower than the untreated control membranes"},
      {"measurement": "effect on spontaneous [35S]GTPγS binding", "setting": "[2]", "result": "inability of cycloleucine to affect spontaneous [^35 S]GTPγS binding"}
    ]}
  ]
}
